US11649510B2, “Screening method for materials that suppress characteristic body odor of elderly people” (Takasago International Corporation, priority 2017, dated 2023)
One block for each compound: values may come before it.

Columns and labels:
[1] = molecular target: T1, OR2C1 (Homo sapiens, UniProt O95371); assay: suppressive effect on the response of OR2C1 to trans-2-nonenal, luciferase reporter gene assay; details: mixed with trans-2-nonenal as analyte; FIGS. 9 and 10
T1 sequence (O95371 1-312): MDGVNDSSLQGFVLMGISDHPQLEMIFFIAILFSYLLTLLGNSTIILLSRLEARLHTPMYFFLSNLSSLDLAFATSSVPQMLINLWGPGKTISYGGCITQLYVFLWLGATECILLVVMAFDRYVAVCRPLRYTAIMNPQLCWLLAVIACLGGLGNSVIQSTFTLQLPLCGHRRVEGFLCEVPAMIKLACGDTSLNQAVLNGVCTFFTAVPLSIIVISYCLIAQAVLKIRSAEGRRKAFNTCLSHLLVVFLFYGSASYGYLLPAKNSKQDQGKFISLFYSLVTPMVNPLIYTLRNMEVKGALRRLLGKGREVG
Text: Human olfactory receptor genes were obtained by PCR cloning with Human Genomic DNA: Female (Promega) on the basis of their sequence information registered in GenBank. Into pME18S vectors, the N-terminal 20 amino acid residues of bovine rhodopsin were integrated, and subsequently the resulting human olfactory receptor genes were integrated respectively downstream thereof to obtain human olfactory receptor gene expression vectors. […]
After removal of the culture solutions, an odorous substance serving as an analyte, which had been prepared at a given concentration with CD293 (gibco) medium (supplemented with 20 μM L-glutamine), was added in 50 μL volumes to stimulate the cells for 3 hours, followed by luciferase activity measurement in accordance with the usage of a Dual-Luciferase Reporter Assay System (Promega). The response intensity of each olfactory receptor polypeptide was expressed as a fold increase value, which was determined by dividing the luciferase activity generated upon stimulation with the odorous substance by the luciferase activity generated in a test system not containing the odorous substance.

[2] = molecular target: T2, OR5P3 (Homo sapiens, UniProt Q8WZ94); assay: luciferase reporter gene assay, response of OR5P3 to odorous substance; assay type: cell-based
T2 sequence (Q8WZ94 1-311): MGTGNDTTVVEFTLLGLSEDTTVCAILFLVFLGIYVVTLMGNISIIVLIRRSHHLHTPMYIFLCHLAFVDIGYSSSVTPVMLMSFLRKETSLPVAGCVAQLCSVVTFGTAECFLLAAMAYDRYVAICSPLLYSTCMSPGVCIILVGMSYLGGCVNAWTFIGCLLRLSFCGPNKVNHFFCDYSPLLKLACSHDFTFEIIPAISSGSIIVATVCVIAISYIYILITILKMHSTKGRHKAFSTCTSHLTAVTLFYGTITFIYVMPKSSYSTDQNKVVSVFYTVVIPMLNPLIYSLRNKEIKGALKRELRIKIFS

[3] = molecular target: T3, OR51A7 (Homo sapiens, UniProt Q8NH64); assay: luciferase reporter gene assay, response of OR51A7 to odorous substance; assay type: cell-based; details: trans-2-octenal 50 μM, HEK293T cells expressing OR51A7
T3 sequence (Q8NH64 1-312): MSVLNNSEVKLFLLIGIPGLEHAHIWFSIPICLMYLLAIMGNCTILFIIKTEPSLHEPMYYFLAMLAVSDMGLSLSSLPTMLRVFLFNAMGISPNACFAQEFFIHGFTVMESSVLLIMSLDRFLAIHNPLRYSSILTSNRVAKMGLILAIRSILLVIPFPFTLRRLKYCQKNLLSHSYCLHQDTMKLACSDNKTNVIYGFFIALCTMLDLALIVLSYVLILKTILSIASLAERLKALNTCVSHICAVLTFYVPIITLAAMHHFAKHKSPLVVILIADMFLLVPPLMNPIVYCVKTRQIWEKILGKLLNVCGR
Procedure: (§1) In the same manner as shown in Example 1, the cells engineered to express 402 types of human olfactory receptors were measured for receptor responses to trans-2-octenal (50 μM) by the luciferase reporter gene assay.

[4] = molecular target: T4, OR4E2 (Homo sapiens, UniProt Q8NGC2, Q234R/V118M); assay: luciferase reporter gene assay, response of OR4E2 to odorous substance; assay type: cell-based
T4 sequence (Q8NGC2 1-313 V118M/Q234R): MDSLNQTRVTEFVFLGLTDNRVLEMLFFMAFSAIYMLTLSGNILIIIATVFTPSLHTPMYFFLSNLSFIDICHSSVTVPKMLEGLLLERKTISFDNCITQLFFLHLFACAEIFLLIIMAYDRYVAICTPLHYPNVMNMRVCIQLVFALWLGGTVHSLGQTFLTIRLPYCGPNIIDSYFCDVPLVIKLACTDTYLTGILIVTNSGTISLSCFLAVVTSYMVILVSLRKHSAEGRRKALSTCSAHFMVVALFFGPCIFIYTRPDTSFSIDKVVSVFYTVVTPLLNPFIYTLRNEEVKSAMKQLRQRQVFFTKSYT

[5] = molecular target: T5, OR9I1 (Homo sapiens, UniProt Q8NGQ6); assay: luciferase reporter gene assay, response of OR9I1 to odorous substance; assay type: cell-based; details: trans-2-octenal 50 μM, HEK293T cells expressing OR9I1
T5 sequence (Q8NGQ6 1-314): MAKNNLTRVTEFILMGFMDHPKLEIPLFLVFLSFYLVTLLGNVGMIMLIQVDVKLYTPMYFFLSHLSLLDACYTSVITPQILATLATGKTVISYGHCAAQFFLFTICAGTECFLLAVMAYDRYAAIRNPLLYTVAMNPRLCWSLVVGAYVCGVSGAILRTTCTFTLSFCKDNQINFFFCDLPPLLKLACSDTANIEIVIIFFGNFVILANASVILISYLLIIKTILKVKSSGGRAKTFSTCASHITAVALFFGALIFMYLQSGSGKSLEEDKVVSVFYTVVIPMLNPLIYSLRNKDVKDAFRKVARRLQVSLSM
Procedure: as §1

[6] = molecular target: T6, OR7G1 (Homo sapiens, UniProt Q8NGA0); assay: luciferase reporter gene assay, response of OR7G1 to odorous substance; assay type: cell-based; details: trans-2-octenal 50 μM, HEK293T cells expressing OR7G1
T6 sequence (Q8NGA0 1-311): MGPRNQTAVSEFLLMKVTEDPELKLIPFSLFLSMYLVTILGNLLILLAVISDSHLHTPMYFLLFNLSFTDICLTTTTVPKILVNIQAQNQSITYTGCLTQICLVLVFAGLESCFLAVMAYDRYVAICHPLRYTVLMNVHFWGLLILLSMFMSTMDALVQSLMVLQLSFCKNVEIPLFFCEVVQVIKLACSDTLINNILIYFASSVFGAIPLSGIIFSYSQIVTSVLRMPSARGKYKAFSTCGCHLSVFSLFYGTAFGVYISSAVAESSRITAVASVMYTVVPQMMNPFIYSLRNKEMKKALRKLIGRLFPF
Procedure: as §1

[7] = molecular target: T1, OR2C1; assay: luciferase reporter gene assay, response of OR2C1 to odorous substance; assay type: cell-based
[8] = molecular target: T7, OR1D2 (Homo sapiens, UniProt P34982); assay: luciferase reporter gene assay, response of OR1D2 to odorous substance; assay type: cell-based
T7 sequence (P34982 1-312): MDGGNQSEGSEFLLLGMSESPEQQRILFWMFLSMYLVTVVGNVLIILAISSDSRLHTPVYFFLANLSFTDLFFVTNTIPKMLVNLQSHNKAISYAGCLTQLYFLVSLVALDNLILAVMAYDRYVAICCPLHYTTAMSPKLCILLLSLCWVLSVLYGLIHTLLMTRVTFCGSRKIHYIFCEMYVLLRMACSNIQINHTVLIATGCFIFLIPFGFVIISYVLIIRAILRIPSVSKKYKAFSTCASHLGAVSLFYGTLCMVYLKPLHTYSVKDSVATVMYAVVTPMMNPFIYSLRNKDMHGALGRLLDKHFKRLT

[9] = molecular target: T8, OR52N2 (Homo sapiens, UniProt Q8NGI0); assay: luciferase reporter gene assay, response of OR52N2 to odorous substance; assay type: cell-based
T8 sequence (Q8NGI0 1-321): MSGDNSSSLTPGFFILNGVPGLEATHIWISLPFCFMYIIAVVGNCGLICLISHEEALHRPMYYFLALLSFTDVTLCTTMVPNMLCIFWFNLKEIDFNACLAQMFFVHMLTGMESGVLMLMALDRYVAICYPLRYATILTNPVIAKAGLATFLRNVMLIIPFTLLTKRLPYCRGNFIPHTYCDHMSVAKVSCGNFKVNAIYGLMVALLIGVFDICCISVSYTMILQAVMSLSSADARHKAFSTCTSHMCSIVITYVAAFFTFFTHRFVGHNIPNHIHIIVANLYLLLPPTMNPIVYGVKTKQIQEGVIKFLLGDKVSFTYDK

SMILES: CC/C=C\CCO [cis-3-Hexenol]
- suppressive effect on the response of OR2C1 to trans-2-nonenal (ratio of fold increase value, test without material set to 100) [1]: reducing the response of OR2C1 to trans-2-nonenal in a concentration-dependent manner

- fold increase value (receptor response) ([2]; trans-2-octenal 50 μM, HEK293T cells expressing OR5P3): ≥ 2
- fold increase value (receptor response) [3]: ≥ 2
- fold increase value (receptor response) ([4]; trans-2-octenal 50 μM, HEK293T cells expressing OR4E2): ≥ 2
- fold increase value (receptor response) [5]: ≥ 2
- fold increase value (receptor response) [6]: ≥ 2
- fold increase value (receptor response) ([7]; trans-2-octenal 50 μM, HEK293T cells expressing OR2C1): ≥ 2
SMILES: CCCCC/C=C/C=O [trans-2-octenal]

SMILES: CC1=CC(C)C(C=O)CC1 (stereo not drawn) [dimethyltetrahydrobenzaldehyde]
- suppressive effect on the response of OR2C1 to trans-2-nonenal (ratio of fold increase value, test without material set to 100) [1]: reducing the response of OR2C1 to trans-2-nonenal in a concentration-dependent manner

- fold increase value (receptor response) ([2]; trans-2-nonenal 60 μM, HEK293T cells expressing OR5P3, 3 hours): ≥ 2
- fold increase value (receptor response) ([4]; trans-2-nonenal 60 μM, HEK293T cells expressing OR4E2, 3 hours): ≥ 2
- fold increase value (receptor response) ([7]; trans-2-nonenal 60 μM, HEK293T cells expressing OR2C1, 3 hours): ≥ 2
- fold increase value (receptor response) ([8]; trans-2-nonenal 60 μM, HEK293T cells expressing OR1D2, 3 hours): ≥ 2
- fold increase value (receptor response) ([9]; trans-2-nonenal 60 μM, HEK293T cells expressing OR52N2, 3 hours): ≥ 2
SMILES: CCCCCC/C=C/C=O [trans-2-nonenal]
- receptor response to different concentrations ([2]; different concentrations of trans-2-nonenal, FIG. 6, no response in mock test): respond to trans-2-nonenal in a concentration-dependent manner
- receptor response to different concentrations ([4]; different concentrations of trans-2-nonenal, FIG. 5, no response in mock test): respond to trans-2-nonenal in a concentration-dependent manner
- receptor response to different concentrations ([7]; different concentrations of trans-2-nonenal, FIG. 3, no response in mock test): respond to trans-2-nonenal in a concentration-dependent manner
- receptor response to different concentrations ([8]; different concentrations of trans-2-nonenal, FIG. 2, no response in mock test): respond to trans-2-nonenal in a concentration-dependent manner
- receptor response to different concentrations ([9]; different concentrations of trans-2-nonenal, FIG. 7, no response in mock test): respond to trans-2-nonenal in a concentration-dependent manner
